Drawing on patent publication US12240862B2, “Inhibitors of peptidylarginine deiminases” (Gilead Sciences, Inc., priority 2020, dated 2025), this text covers IC50 for 19 compounds.

The target in this assay is T1, human PAD4 (Homo sapiens, UniProt Q9UM07).
T1 construct: human PAD4 (NM_012387), A2P663, was PCR amplified; His-SUMO (N, cleaved yes); made in house; host or cells: E. coli BL21(DE3)
T1 sequence (Q9UM07 2-663): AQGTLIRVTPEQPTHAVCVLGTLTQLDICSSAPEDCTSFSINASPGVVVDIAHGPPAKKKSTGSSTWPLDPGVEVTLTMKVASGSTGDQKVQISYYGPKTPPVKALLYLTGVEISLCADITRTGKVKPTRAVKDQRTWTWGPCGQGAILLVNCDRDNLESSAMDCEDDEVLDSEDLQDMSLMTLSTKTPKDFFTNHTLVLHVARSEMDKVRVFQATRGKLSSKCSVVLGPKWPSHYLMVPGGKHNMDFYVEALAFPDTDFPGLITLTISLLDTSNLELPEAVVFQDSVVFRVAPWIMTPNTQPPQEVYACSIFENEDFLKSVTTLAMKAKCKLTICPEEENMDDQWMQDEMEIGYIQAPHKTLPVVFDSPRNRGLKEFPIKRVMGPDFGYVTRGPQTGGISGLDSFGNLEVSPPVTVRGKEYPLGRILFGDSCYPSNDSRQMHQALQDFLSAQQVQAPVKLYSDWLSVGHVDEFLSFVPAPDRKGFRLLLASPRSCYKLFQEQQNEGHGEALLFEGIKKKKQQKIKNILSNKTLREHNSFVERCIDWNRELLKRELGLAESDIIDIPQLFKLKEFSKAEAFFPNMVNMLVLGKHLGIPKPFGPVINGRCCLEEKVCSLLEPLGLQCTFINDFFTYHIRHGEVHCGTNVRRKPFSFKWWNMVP
In words: In vitro PAD4 BAEE biochemical assay. The note with it: human PAD4, BAEE substrate; 5 nM PAD4, 2 mM calcium chloride, 3 mM BAEE; geometric mean of multiple experiments. The method, boiled down: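 Ammonia release from BAEE deimination monitored by o-phthalaldehyde amine coupling (1 h, 25 °C) after EDTA stop. Final conditions: 5 nM tag-free recombinant human PAD4 (E. coli), 2 mM CaCl2, 3 mM BAEE, pH 7.6 MOPS with DTT; 30 min compound preincubation, then 2 h reaction at 25 °C.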
Take `COc1cc(C(=O)N2CCC[C@@H](N)CC2)cc2nc(-c3cc4ccc([C@@H](C)NC(=O)C56CC(F)(C5)C6)nc4n3CC3CC3)c(C)n12` [Example 38, ~{N}-[(1~{R})-1-[2-[7-[(4~{R})-4-aminoazepane-1-carbonyl]-5-methoxy-3-methylimidazo[1,2-a]pyridin-2-yl]-1-(cyclopropylmethyl)pyrrolo[2,3-b]pyridin-6-yl]ethyl]-3-fluorobicyclo[1.1.1] pentane-1-carboxamide]: the concentration for half-maximal inhibition (IC50) was 30600 nM. Take `COc1cc(C(=O)N2[C@H]3CC[C@@H]2[C@H](N)C3)cc2nc(-c3cc4ccc([C@@H](C)NC(=O)[C@H]5[C@@H]6CC(F)(F)C[C@@H]65)nc4n3CC3CC3)c(C)n12` [Example 8, (1~{R},5~{S})-~{N}-[(1~{R})-1-[2-[7-[(1~{R}, 2~{R},4~{S})-2-amino-7-azabicyclo[2.2.1]heptane-7-carbonyl]-5-methoxy-3-methylimidazo [1,2-a]pyridin-2-yl]-1-(cyclopropylmethyl)pyrrolo[2,3-b]pyridin-6-yl]ethyl]-3,3-difluorobicyclo[3.1.0] hexane-6-carboxamide]: the half-inhibitory concentration (IC50) amounted to 144 nM.

Turning to `COc1cc(C(=O)N2[C@H]3CC[C@@H]2[C@H](N)C3)cc2nc(-c3cc4ccc([C@@H](C)NC(=O)c5ccncc5)nc4n3CC3CC3)c(C)n12` [Example 119, ~{N}-[(1~{R})-1-[2-[7-[(1~{R},2~{R},4~{S})-2-amino-7-azabicyclo[2.2.1]heptane-7-carbonyl]-5-methoxy-3-methylimidazo [1,2-a]pyridin-2-yl]-1-(cyclopropylmethyl)pyrrolo [2,3-b]pyridin-6-yl]ethyl] pyridine-4-carboxamide], the IC50 is 34.5 nM.

On to `CCc1ccc2cc(-c3nc4cc(C(=O)N5CCC6(CC6)[C@@H](N)C5)cc(OC)n4c3C)n(CC3CC3)c2n1` [Example 592, [(8~{R})-8-amino-6-azaspiro[2.5]octan-6-yl]-[2-[1-(cyclopropylmethyl)-6-ethylpyrrolo[2,3-b]pyridin-2-yl]-5-methoxy-3-methylimidazo[1,2-a]pyridin-7-yl]methanone], for which the half-maximal inhibitory concentration (IC50) was found to be 9000 nM.

`COc1cc(C(=O)N2[C@H]3CC[C@@H]2[C@H](N)C3)cc2nc(-c3cc4ccc([C@@H](C)NC(=O)C5(C(F)F)CC5)nc4n3CC3CC3)c(C)n12` [Example 137, ~{N}-[(1~{R})-1-[2-[7-[(1~{R},2~{R},4~{S})-2-amino-7-azabicyclo[2.2.1]heptane-7-carbonyl]-5-methoxy-3-methylimidazo [1,2-a]pyridin-2-yl]-1-(cyclopropylmethyl)pyrrolo [2,3-b]pyridin-6-yl]ethyl]-1-(difluoromethyl) cyclopropane-1-carboxamide]: the IC50 was 107 nM.

With `COc1cc(C(=O)N2[C@H]3CC[C@@H]2[C@H](N)C3)cc2nc(-c3cc4ccc([C@@H](C)NC(=O)N5CCN(C)CC5)nc4n3CC3CC3)c(C)n12` [Example 235, ~{N}-[(1~{R})-1-[2-[7-[(1~{R},2~{R},4~{S})-2-amino-7-azabicyclo[2.2.1]heptane-7-carbonyl]-5-methoxy-3-methylimidazo [1,2-a]pyridin-2-yl]-1-(cyclopropylmethyl)pyrrolo [2,3-b]pyridin-6-yl]ethyl]-4-methylpiperazine-1-carboxamide], the IC50 came out at 63.6 nM. Then `COc1cc(C(=O)N2C[C@H]3C[C@H](C)[C@@H]2[C@@H]3N)cc2nc(-c3cc4ccc([C@@H](C)NC(=O)C(C)(C)C)nc4n3CC3CC3)c(C)n12` [Example 167, N-((R)-1-(2-(7-((1R,4R,6S,7R)-7-amino-6-methyl-2-azabicyclo[2.2.1]heptane-2-carbonyl)-5-methoxy-3-methylimidazo [1,2-a]pyridin-2-yl)-1-(cyclopropylmethyl)-1H-pyrrolo [2,3-b]pyridin-6-yl)ethyl) pivalamide], with 2700 nM; and `COc1cc(C(=O)N2[C@H]3CC[C@@H]2[C@H](N)C3)cc2nc(-c3cc4ccc([C@@H](C)NC(=O)c5cnn(C)c5Cl)nc4n3CC3CC3)c(C)n12` [Example 75, ~{N}-[(1~{R})-1-[2-[7-[(1~{R},2~{R},4~{S})-2-amino-7-azabicyclo[2.2.1]heptane-7-carbonyl]-5-methoxy-3-methylimidazo [1,2-a]pyridin-2-yl]-1-(cyclopropylmethyl)pyrrolo [2,3-b]pyridin-6-yl]ethyl]-5-chloro-1-methylpyrazole-4-carboxamide], with 39.2 nM; and `COc1cc(C(=O)N2[C@H]3CC[C@@H]2[C@H](N)C3)cc2nc(-c3cc4ccc(N5C[C@@H](C)OCS5(=O)=O)nc4n3CC3CC3)c(C)n12` [Example 440, [(1~{R},2~{R},4~{S})-2-amino-7-azabicyclo [2.2.1]heptan-7-yl]-[2-[1-(cyclopropylmethyl)-6-[(6~{R})-6-methyl-3,3-dioxo-1,3,4-oxathiazinan-4-yl]pyrrolo [2,3-b]pyridin-2-yl]-5-methoxy-3-methylimidazo [1,2-a]pyridin-7-yl] methanone], with 207 nM. `COc1cc(C(=O)N2[C@H]3CC[C@@H]2[C@H](N)C3)cc2nc(-c3cc4ccc([C@@H](C)NC(=O)N5CCO[C@H](C)C5)nc4n3CC3CC3)c(C)n12` [Example 210, (2~{R})-~{N}-[(1~{R})-1-[2-[7-[(1~{R},2~{R}, 4~{S})-2-amino-7-azabicyclo[2.2.1]heptane-7-carbonyl]-5-methoxy-3-methylimidazo [1,2-a]pyridin-2-yl]-1-(cyclopropylmethyl)pyrrolo [2,3-b]pyridin-6-yl]ethyl]-2-methylmorpholine-4-carboxamide]: the concentration for half-maximal inhibition (IC50) came out at 39.7 nM. On to `CS(=O)(=O)N(c1ccc2cc(-c3nc4cc(C(=O)N5CC[C@@H](N)C5)ccn4c3C3CC3)n(CC3CC3)c2n1)C(F)F` [Example 393, ~{N}-[2-[7-[(3~{R})-3-aminopyrrolidine-1-carbonyl]-3-cyclopropylimidazo[1,2-a]pyridin-2-yl]-1-(cyclopropylmethyl)pyrrolo [2,3-b]pyridin-6-yl]-~{N}-(difluoromethyl) methanesulfonamide], for which the IC50 was 2010 nM. Consider `CCCC(CC(=O)N1CCCC1)c1ccc2cc(-c3nc4cc(C(=O)N5[C@H]6CC[C@@H]5[C@H](N)C6)cc(OC)n4c3C)n(CC3CC3)c2n1` (stereo partly shown) [Example 541, 3-[2-[7-[(1~{R},2~{R}, 4~{S})-2-amino-7-azabicyclo[2.2.1]heptane-7-carbonyl]-5-methoxy-3-methylimidazo[1,2-a]pyridin-2-yl]-1-(cyclopropylmethyl)pyrrolo [2,3-b]pyridin-6-yl]-1-pyrrolidin-1-ylhexan-1-one], for which the half-inhibitory concentration (IC50) was 270 nM. On to `COc1cc(C(=O)N2[C@H]3CC[C@@H]2[C@H](N)C3)cc2nc(-c3cc4ccc([C@@H](C)NC(=O)N5CC(C)(C(=O)O)C5)nc4n3CC3CC3)c(C)n12` [Example 230, 1-[[(1~{R})-1-[2-[7-[(1~{R},2~{R},4~{S})-2-amino-7-azabicyclo[2.2.1]heptane-7-carbonyl]-5-methoxy-3-methylimidazo [1,2-a]pyridin-2-yl]-1-(cyclopropylmethyl)pyrrolo [2,3-b]pyridin-6-yl]ethyl]carbamoyl]-3-methylazetidine-3-carboxylic acid], for which the IC50 turned out to be 70 nM.

For `COc1cc(C(=O)N2[C@H]3CC[C@@H]2[C@H](N)C3)cc2nc(-c3cc4ccc([C@@H](C)NC(=O)C(C)(C)C(F)(F)F)nc4n3CC3CC3)c(C)n12` [Example 171, ~{N}-[(1~{R})-1-[2-[7-[(1~{R},2~{R},4~{S})-2-amino-7-azabicyclo[2.2.1]heptane-7-carbonyl]-5-methoxy-3-methylimidazo [1,2-a]pyridin-2-yl]-1-(cyclopropylmethyl)pyrrolo [2,3-b]pyridin-6-yl]ethyl]-3,3,3-trifluoro-2,2-dimethylpropanamide], the IC50 was 179 nM. As for `COc1cc(C(=O)N2CC[C@H]3OCCN[C@H]3C2)cc2nc(-c3cc4ccc(N(C(F)F)S(C)(=O)=O)nc4n3CC3CC3)c(C3CC3)n12` [Example 384, ~{N}-[2-[7-[(4~{a}~{S},8~{a}~{R})-2,3,4,4~{a},5,7,8,8~{a}-octahydropyrido[4,3-b][1,4]oxazine-6-carbonyl]-3-cyclopropyl-5-methoxyimidazo[1,2-a]pyridin-2-yl]-1-(cyclopropylmethyl)pyrrolo [2,3-b]pyridin-6-yl]-~{N}-(difluoromethyl) methanesulfonamide], the IC50 worked out at 888 nM.

In the case of `COc1cc(C(=O)N2C[C@@H]3CCNCC32)cc2nc(-c3cc4ccc(N(C(F)F)S(C)(=O)=O)nc4n3CC3CC3)c(C)n12` (stereo partly shown) [Example 287, ~{N}-[1-(cyclopropylmethyl)-2-[7-[(6~{S},8~{R})-3,8-diazabicyclo[4.2.0]octane-8-carbonyl]-5-methoxy-3-methylimidazo[1,2-a]pyridin-2-yl]pyrrolo[2,3-b]pyridin-6-yl]-~{N}-(difluoromethyl) methanesulfonamide], the 50% inhibitory concentration (IC50) stood at 46300 nM.

For `COc1cc(C(=O)N2[C@H]3CC[C@@H]2[C@H](N)C3)cc2nc(-c3cc4ccc([C@@H](C)NC(=O)N5CCC(C(=O)O)C5)nc4n3CC3CC3)c(C)n12` (stereo partly shown) [Example 228], the half-inhibitory concentration (IC50) is 48.6 nM. Take `COc1cc(C(=O)N2[C@H]3CC[C@@H]2[C@H](N)C3)cc2nc(-c3cc4ccc(N(C)S(C)(=O)=O)nc4n3CC3CC3)c(C)n12` [Example 476, ~{N}-[2-[7-[(1~{R}, 2~{R},4~{S})-2-amino-7-azabicyclo[2.2.1]heptane-7-carbonyl]-5-methoxy-3-methylimidazo[1,2-a]pyridin-2-yl]-1-(cyclopropylmethyl)pyrrolo[2,3-b]pyridin-6-yl]-~{N}-methylmethanesulfonamide]: the IC50 turned out to be 46.8 nM.

Consider `COc1cc(C(=O)N[C@H]2CNCC[C@@H]2C)cc2nc(-c3cc4ccc(N(C(F)F)S(C)(=O)=O)nc4n3CC3CC3)c(C)n12` [Example 282, 2-[1-(cyclopropylmethyl)-6-[difluoromethyl (methylsulfonyl)amino]pyrrolo[2,3-b]pyridin-2-yl]-5-methoxy-3-methyl-~{N}-[(3~{R},4~{S})-4-methylpiperidin-3-yl]imidazo[1,2-a] pyridine-7-carboxamide], for which the IC50 stood at 10400 nM.
